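Protocol summary: plate cells (96-well), add compound at 5 concentrations, incubate 48 h, interpolate endpoints linearly. TGI denotes the concentration required for complete inhibition of growth.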
Legend:
Assay in all cases: inhibition of tumour cell growth, NCI panel, 48 h
[1] = tested on: SR leukemia
[2] = tested on: SK-MEL-5 melanoma
[3] = tested on: COLO 205 colon
[4] = tested on: UACC-62 melanoma
[5] = tested on: DU-145 prostate
[6] = tested on: NCI-H522 lung
[7] = tested on: HCT-15 colon
[8] = tested on: 786-0 renal
[9] = tested on: TK-10 renal
[10] = tested on: SNB-19 CNS
[11] = tested on: MALME-3M melanoma
[12] = tested on: A549 NSCLC
[13] = tested on: PC-3 prostate
[14] = tested on: M14 melanoma
[15] = tested on: HCT-116 colon
[16] = tested on: U251 CNS
[17] = tested on: A498 renal
[18] = tested on: SK-MEL-2 melanoma

Work on `CCc1nc2c(n1CC)C(=O)c1ccccc1C2=O` yielded a TGI [1] greater than 100 µM, a TGI [2] greater than 10 µM and a TGI [3] of 43.4 µM. It also gave a TGI [4] greater than 100 µM, a TGI [5] greater than 100 µM and a TGI [6] of 96 µM. The TGI [7] was greater than 100 µM, the TGI [8] was greater than 100 µM and the TGI [9] was 93.1 µM. It also gave a TGI [10] greater than 100 µM, a TGI [11] of 34.3 µM and a TGI [12] greater than 100 µM. It also gave a TGI [13] of 63.7 µM, a TGI [14] of 54.9 µM and a TGI [15] greater than 10 µM. It also gave a TGI [16] greater than 100 µM.
`CN1C[C@@H]2CC(=O)CC[C@@H]2C[C@H]1C#N` showed a TGI [17] greater than 100 µM, a TGI [2] greater than 100 µM and a TGI [18] greater than 100 µM. It also gave a TGI [4] greater than 100 µM, a TGI [6] greater than 100 µM and a TGI [7] greater than 100 µM. It also gave a TGI [8] greater than 100 µM, a TGI [10] greater than 100 µM and a TGI [11] greater than 100 µM. For the same compound, the TGI [12] was greater than 100 µM, the TGI [14] was greater than 100 µM and the TGI [15] was greater than 100 µM.
Work on `CC(Cc1ccc(O)cn1)(NC(=O)c1ccccc1)C(=O)O` (configuration not stated) yielded a TGI [1] greater than 100 µM, a TGI [2] greater than 100 µM and a TGI [18] greater than 100 µM. It also gave a TGI [3] greater than 100 µM, a TGI [4] greater than 100 µM and a TGI [5] greater than 100 µM. For the same compound, the TGI [6] was greater than 100 µM, the TGI [7] was greater than 100 µM and the TGI [8] was greater than 100 µM. The TGI [9] was greater than 100 µM, the TGI [10] was greater than 100 µM and the TGI [11] was greater than 100 µM. For the same compound, the TGI [12] was greater than 100 µM, the TGI [13] was greater than 100 µM and the TGI [14] was greater than 100 µM. The TGI [15] was greater than 100 µM and the TGI [16] was greater than 100 µM.
For `CC1(C)CC(=O)c2c(nc3c(ccc4ccccc43)c2-c2ccc(NC(=O)CCCCCCCCC(=O)Nc3ccc(-c4c5c(nc6c4ccc4ccccc46)CC(C)(C)CC5=O)cc3)cc2)C1`, the TGI [1] was greater than 100 µM, the TGI [2] was greater than 100 µM and the TGI [18] was greater than 100 µM. The TGI [3] was greater than 100 µM, the TGI [5] was greater than 100 µM and the TGI [6] was greater than 100 µM. It also gave a TGI [8] greater than 100 µM, a TGI [9] greater than 100 µM and a TGI [10] greater than 100 µM. For the same compound, the TGI [12] was greater than 100 µM, the TGI [13] was greater than 100 µM and the TGI [14] was greater than 100 µM. For the same compound, the TGI [15] was greater than 100 µM and the TGI [16] was greater than 100 µM.
`Cc1cc2c(=O)c3ccc(Cl)cc3[nH]c2c(C(=O)O)c1C` was tested, and the TGI [2] was greater than 100 µM, the TGI [18] was greater than 100 µM and the TGI [3] was greater than 100 µM. The TGI [4] was greater than 100 µM, the TGI [6] was greater than 100 µM and the TGI [7] was greater than 100 µM. For the same compound, the TGI [8] was greater than 100 µM, the TGI [9] was greater than 100 µM and the TGI [10] was greater than 100 µM. It also gave a TGI [11] greater than 100 µM, a TGI [12] greater than 100 µM and a TGI [14] greater than 100 µM. The TGI [15] was greater than 100 µM and the TGI [16] was greater than 100 µM.
Work on `Nc1ccc(N=Nc2ccc(-c3ccc(N=Nc4c(S(=O)(=O)O)cc5cc(S(=O)(=O)O)c(N=Nc6ccc([N+](=O)[O-])cc6)c(N)c5c4O)cc3)cc2)c2cc(S(=O)(=O)O)ccc12` yielded a TGI [1] greater than 100 µM, a TGI [17] greater than 100 µM and a TGI [2] greater than 100 µM. The TGI [18] was greater than 100 µM, the TGI [3] was greater than 100 µM and the TGI [4] was greater than 100 µM. The TGI [6] was greater than 100 µM, the TGI [7] was greater than 100 µM and the TGI [8] was greater than 100 µM. The TGI [9] was greater than 100 µM, the TGI [10] was greater than 100 µM and the TGI [11] was greater than 100 µM. The TGI [12] was greater than 100 µM, the TGI [14] was greater than 100 µM and the TGI [15] was greater than 100 µM. For the same compound, the TGI [16] was greater than 100 µM.
With `Nc1c2ccccc2nc2nccnc12` the TGI [1] was greater than 100 µM, the TGI [17] was greater than 100 µM and the TGI [2] was greater than 100 µM. For the same compound, the TGI [18] was greater than 100 µM, the TGI [3] was greater than 100 µM and the TGI [4] was greater than 100 µM. It also gave a TGI [6] greater than 100 µM, a TGI [7] greater than 100 µM and a TGI [8] greater than 100 µM. For the same compound, the TGI [9] was greater than 100 µM, the TGI [10] was greater than 100 µM and the TGI [11] was greater than 100 µM. For the same compound, the TGI [12] was greater than 100 µM, the TGI [14] was greater than 100 µM and the TGI [15] was greater than 100 µM. It also gave a TGI [16] greater than 100 µM.
In the case of `CC12CCC3C(CCC4(O)C=CCCC34C=O)C1(O)CC(O)C2c1ccc(=O)oc1` (configuration not stated), the TGI [17] is reported as 0.253 µM, the TGI [2] is reported as 0.0887 µM and the TGI [18] is reported as 0.295 µM. It also gave a TGI [3] of 0.381 µM, a TGI [4] of 0.145 µM and a TGI [6] of 0.0622 µM. The TGI [7] was 0.178 µM, the TGI [10] was 0.527 µM and the TGI [11] was 0.0877 µM. It also gave a TGI [12] of 0.0646 µM, a TGI [15] of 0.22 µM and a TGI [16] of 0.197 µM.
In the case of `CC[C@H](C)[C@H](NC(=O)[C@H](Cc1ccc(O)cc1)NCC(F)(F)F)C(=O)OC(C)(C)C`, the TGI [1] is reported as 20.8 µM, the TGI [17] is reported as 14.8 µM and the TGI [2] is reported as 15.3 µM. It also gave a TGI [18] of 13.9 µM, a TGI [3] of 18.4 µM and a TGI [4] of 12.9 µM. It also gave a TGI [6] of 20.1 µM, a TGI [7] of 34.2 µM and a TGI [8] of 16.1 µM. For the same compound, the TGI [9] was 15.4 µM, the TGI [10] was 15.8 µM and the TGI [11] was 22.1 µM. The TGI [12] was 13 µM, the TGI [13] was 14.1 µM and the TGI [14] was 15.1 µM. For the same compound, the TGI [15] was 16.6 µM and the TGI [16] was 13.7 µM.
Compound `CCNc1nc2c(=O)n(C)c(=O)n(C)c2s1` has a TGI [17] greater than 100 µM, a TGI [18] greater than 100 µM and a TGI [3] greater than 100 µM. The TGI [4] was greater than 100 µM, the TGI [6] was greater than 100 µM and the TGI [7] was greater than 100 µM. It also gave a TGI [8] greater than 100 µM, a TGI [9] greater than 100 µM and a TGI [10] greater than 100 µM. The TGI [11] was greater than 100 µM, the TGI [12] was greater than 100 µM and the TGI [14] was greater than 100 µM. It also gave a TGI [15] greater than 100 µM and a TGI [16] greater than 100 µM.
`CCCCCCCCOP(=O)(O)OP(=O)(O)OCC1OC(n2ccc(N)nc2=O)C(O)C1O` (configuration not stated) showed a TGI [17] greater than 100 µM, a TGI [2] greater than 100 µM and a TGI [18] greater than 100 µM. For the same compound, the TGI [3] was greater than 100 µM, the TGI [4] was greater than 100 µM and the TGI [7] was greater than 100 µM. For the same compound, the TGI [8] was greater than 100 µM, the TGI [9] was greater than 100 µM and the TGI [10] was greater than 100 µM. The TGI [11] was greater than 100 µM, the TGI [12] was greater than 100 µM and the TGI [13] was greater than 100 µM. The TGI [14] was greater than 100 µM, the TGI [15] was greater than 100 µM and the TGI [16] was greater than 100 µM.
Work on `Cc1ccc(NCCO)cc1` yielded a TGI [1] greater than 100 µM, a TGI [2] greater than 100 µM and a TGI [18] greater than 100 µM. The TGI [3] was greater than 100 µM, the TGI [4] was greater than 100 µM and the TGI [6] was greater than 100 µM. For the same compound, the TGI [7] was greater than 100 µM, the TGI [8] was greater than 100 µM and the TGI [9] was greater than 100 µM. For the same compound, the TGI [10] was greater than 100 µM, the TGI [11] was greater than 100 µM and the TGI [12] was greater than 100 µM. It also gave a TGI [14] greater than 100 µM, a TGI [15] greater than 100 µM and a TGI [16] greater than 100 µM.
For `COc1ccc(/C=C2\C(=O)Nc3ccccc32)cc1OC`, the TGI [17] was greater than 100 µM, the TGI [2] was greater than 100 µM and the TGI [18] was greater than 100 µM. For the same compound, the TGI [3] was greater than 100 µM, the TGI [4] was greater than 100 µM and the TGI [6] was greater than 100 µM. It also gave a TGI [7] greater than 100 µM, a TGI [8] greater than 100 µM and a TGI [9] greater than 100 µM. It also gave a TGI [10] greater than 100 µM, a TGI [11] greater than 100 µM and a TGI [12] greater than 100 µM. The TGI [14] was greater than 100 µM, the TGI [15] was greater than 100 µM and the TGI [16] was greater than 100 µM.
With `O=C1NC(=S)NC1C(Cc1ccccc1)c1ccco1` (configuration not stated) the TGI [1] was greater than 100 µM, the TGI [17] was greater than 100 µM and the TGI [2] was greater than 100 µM. The TGI [3] was greater than 100 µM, the TGI [5] was greater than 100 µM and the TGI [6] was greater than 100 µM. It also gave a TGI [7] greater than 100 µM, a TGI [8] greater than 100 µM and a TGI [9] greater than 100 µM. For the same compound, the TGI [10] was greater than 100 µM, the TGI [11] was greater than 100 µM and the TGI [12] was greater than 100 µM. The TGI [14] was greater than 100 µM, the TGI [15] was greater than 100 µM and the TGI [16] was greater than 100 µM.
For `N#CC(NNC(=O)Cc1ccccc1)c1ccc(O)cc1` (configuration not stated), the TGI [1] was greater than 100 µM, the TGI [2] was greater than 100 µM and the TGI [18] was greater than 100 µM. For the same compound, the TGI [3] was greater than 100 µM, the TGI [4] was greater than 100 µM and the TGI [6] was greater than 100 µM. It also gave a TGI [7] greater than 100 µM, a TGI [8] greater than 100 µM and a TGI [9] greater than 100 µM. The TGI [11] was greater than 100 µM, the TGI [12] was greater than 100 µM and the TGI [14] was greater than 100 µM. The TGI [15] was greater than 100 µM and the TGI [16] was greater than 100 µM.
